From the NIST ThermoML archive (doi:10.1016/j.jct.2005.03.012)

Assay: excess molar enthalpy (molar enthalpy of mixing); xn = mol fraction of the nth substance listed
Conditions: Liquid

CO [methanol] + O
Conditions | excess molar enthalpy [kcal/mol]
323.15 K, 2000 kPa, x1 = 0.2 | -0.153
323.15 K, 2000 kPa, x1 = 0.4 | -0.168
323.15 K, 2000 kPa, x1 = 0.6 | -0.142
323.15 K, 2000 kPa, x1 = 0.8 | -0.0978
323.15 K, 5000 kPa, x1 = 0.1 | -0.106
323.15 K, 5000 kPa, x1 = 0.2 | -0.154
323.15 K, 5000 kPa, x1 = 0.3 | -0.17
323.15 K, 5000 kPa, x1 = 0.4 | -0.169
323.15 K, 5000 kPa, x1 = 0.5 | -0.158
323.15 K, 5000 kPa, x1 = 0.6 | -0.142
323.15 K, 5000 kPa, x1 = 0.7 | -0.122
323.15 K, 5000 kPa, x1 = 0.8 | -0.0987
323.15 K, 5000 kPa, x1 = 0.9 | -0.055
323.15 K, 10000 kPa, x1 = 0.2 | -0.155
323.15 K, 10000 kPa, x1 = 0.4 | -0.172
323.15 K, 10000 kPa, x1 = 0.6 | -0.143
323.15 K, 10000 kPa, x1 = 0.8 | -0.0997
325.16 K, 5000 kPa, x1 = 0.1 | -0.103
325.16 K, 5000 kPa, x1 = 0.2 | -0.15
325.16 K, 5000 kPa, x1 = 0.3 | -0.165
325.16 K, 5000 kPa, x1 = 0.4 | -0.164
325.16 K, 5000 kPa, x1 = 0.5 | -0.153
325.16 K, 5000 kPa, x1 = 0.6 | -0.139
325.16 K, 5000 kPa, x1 = 0.7 | -0.119
325.16 K, 5000 kPa, x1 = 0.8 | -0.0958
325.16 K, 5000 kPa, x1 = 0.9 | -0.0548
325.16 K, 10000 kPa, x1 = 0.2 | -0.15
325.16 K, 10000 kPa, x1 = 0.4 | -0.166
325.16 K, 10000 kPa, x1 = 0.6 | -0.139
325.16 K, 10000 kPa, x1 = 0.8 | -0.0964
325.17 K, 2000 kPa, x1 = 0.2 | -0.149
325.17 K, 2000 kPa, x1 = 0.4 | -0.164
325.17 K, 2000 kPa, x1 = 0.6 | -0.138
325.17 K, 2000 kPa, x1 = 0.8 | -0.0951
325.45 K, 5000 kPa, x1 = 0.9 | -0.0537
327.47 K, 5000 kPa, x1 = 0.8 | -0.0944
327.48 K, 5000 kPa, x1 = 0.9 | -0.0536
327.62 K, 2000 kPa, x1 = 0.8 | -0.0935
327.85 K, 10000 kPa, x1 = 0.8 | -0.0948
328.61 K, 5000 kPa, x1 = 0.1 | -0.0988
328.71 K, 5000 kPa, x1 = 0.7 | -0.114
329.03 K, 2000 kPa, x1 = 0.8 | -0.0907
329.7 K, 10000 kPa, x1 = 0.6 | -0.132
329.76 K, 5000 kPa, x1 = 0.6 | -0.131
329.82 K, 2000 kPa, x1 = 0.6 | -0.131
329.82 K, 10000 kPa, x1 = 0.8 | -0.0921
330.07 K, 5000 kPa, x1 = 0.8 | -0.0915
330.39 K, 5000 kPa, x1 = 0.1 | -0.0956
330.5 K, 5000 kPa, x1 = 0.5 | -0.144
330.64 K, 2000 kPa, x1 = 0.2 | -0.139
330.67 K, 10000 kPa, x1 = 0.2 | -0.14
330.69 K, 5000 kPa, x1 = 0.2 | -0.14
330.7 K, 5000 kPa, x1 = 0.7 | -0.112
331.07 K, 2000 kPa, x1 = 0.4 | -0.151
331.07 K, 5000 kPa, x1 = 0.4 | -0.153
331.13 K, 10000 kPa, x1 = 0.4 | -0.153
331.23 K, 5000 kPa, x1 = 0.3 | -0.152
331.57 K, 10000 kPa, x1 = 0.6 | -0.128
331.61 K, 5000 kPa, x1 = 0.6 | -0.128
331.66 K, 2000 kPa, x1 = 0.6 | -0.127
332.3 K, 5000 kPa, x1 = 0.5 | -0.14
332.4 K, 10000 kPa, x1 = 0.2 | -0.135
332.42 K, 2000 kPa, x1 = 0.2 | -0.133
332.5 K, 5000 kPa, x1 = 0.2 | -0.136
332.88 K, 2000 kPa, x1 = 0.4 | -0.148
332.9 K, 5000 kPa, x1 = 0.4 | -0.148
332.91 K, 10000 kPa, x1 = 0.4 | -0.149
333.05 K, 5000 kPa, x1 = 0.3 | -0.148
348.15 K, 5000 kPa, x1 = 0.1 | -0.0704
348.15 K, 5000 kPa, x1 = 0.2 | -0.102
348.15 K, 5000 kPa, x1 = 0.3 | -0.112
348.15 K, 5000 kPa, x1 = 0.4 | -0.111
348.15 K, 5000 kPa, x1 = 0.5 | -0.107
348.15 K, 5000 kPa, x1 = 0.6 | -0.0974
348.15 K, 5000 kPa, x1 = 0.7 | -0.0869
348.15 K, 5000 kPa, x1 = 0.8 | -0.0695
348.15 K, 5000 kPa, x1 = 0.9 | -0.0424
349.68 K, 5000 kPa, x1 = 0.9 | -0.0412
350.05 K, 5000 kPa, x1 = 0.1 | -0.0674
350.05 K, 5000 kPa, x1 = 0.2 | -0.0978
350.05 K, 5000 kPa, x1 = 0.3 | -0.106
350.05 K, 5000 kPa, x1 = 0.4 | -0.106
350.05 K, 5000 kPa, x1 = 0.5 | -0.102
350.05 K, 5000 kPa, x1 = 0.6 | -0.0936
350.05 K, 5000 kPa, x1 = 0.7 | -0.0835
350.05 K, 5000 kPa, x1 = 0.8 | -0.0667
350.05 K, 5000 kPa, x1 = 0.9 | -0.0408
351.04 K, 5000 kPa, x1 = 0.8 | -0.0626
351.25 K, 5000 kPa, x1 = 0.9 | -0.0398
351.64 K, 5000 kPa, x1 = 0.1 | -0.0659
351.93 K, 5000 kPa, x1 = 0.7 | -0.0796
352.43 K, 5000 kPa, x1 = 0.6 | -0.0885
352.79 K, 5000 kPa, x1 = 0.8 | -0.0634
352.88 K, 5000 kPa, x1 = 0.5 | -0.096
353.01 K, 5000 kPa, x1 = 0.2 | -0.0922
353.16 K, 5000 kPa, x1 = 0.4 | -0.0995
353.32 K, 5000 kPa, x1 = 0.3 | -0.1
353.54 K, 5000 kPa, x1 = 0.1 | -0.0624
353.78 K, 5000 kPa, x1 = 0.7 | -0.0773
354.25 K, 5000 kPa, x1 = 0.6 | -0.0852
354.69 K, 5000 kPa, x1 = 0.5 | -0.0921
354.82 K, 5000 kPa, x1 = 0.2 | -0.0883
354.97 K, 5000 kPa, x1 = 0.4 | -0.095
